Source: publication PMC12377202, “Design, synthesis, and cytotoxic evaluation of quinazoline-based derivatives as VEGER-2 inhibitors: comparative study against EGFR kinase activity, induction of apoptosis, and molecular docking study” (RSC Advances, 2025)
≈ marks a conversion by molar mass, not a printed value. Where two headings read alike, the source gives them in different places.

Key:
PC3 = settings: cited from earlier work
VEGFR-2 kinase = settings: cited from earlier work
MCF-7 [1] = settings: cited from earlier work
WI-38 = settings: read-out: IC50 normal WI-38 cells; cited from earlier work
HepG2 = settings: cited from earlier work
IL-6R = IL-6R level in HepG-2 cells; format: cell-based, human; settings: control 44.10
Procedure: (§1) All synthesized compounds were tested at their cytotoxic concentrations in HepG-2 cells for analysis of gene expression levels of apoptotic markers caspase-3, caspase-9, TNF-α, and IL-6 proteins, and only two active compounds were tested for BAX and Bcl-2 proteins.
(§2) through Flow cytometric analysis.
(§3) Pellets were collected again and incubated with
(§4) Total RNA from vehicle-treated
(§5) (Thermo Scientific, USA).
(§6) All experiments were performed in […]

HepG-2 = test: MTT anti-proliferative assay, HepG-2; format: cell-based, human; settings: Homo sapiens, HepG2
caspase-9 = test: Caspase-9 expression level in HepG-2 cells; format: cell-based, human; settings: for Caspase-9 ± SE: HepG-2, at IC50 concentrations, control 11.01
Procedure: as §1, §2, §3, §4, §5, §6

EGFR = EGFR (Homo sapiens, UniProt P00533); test: EGFR kinase inhibition assay (ELISA kit)
MCF-7 [2] = test: MTT anti-proliferative assay, MCF-7; format: cell-based, human; settings: Homo sapiens, MCF7
BAX/Bcl-2 = BAX/Bcl-2 ratio in HepG-2 cells; format: cell-based, human
Procedure: as §1, §2, §3, §4, §5, §6

VEGFR-2 = VEGFR-2 (Homo sapiens, UniProt P35968); test: In vitro VEGFR-2 inhibitory assay (ELISA kit); settings: VEGFR-2 kinase
Bcl-2 = Bcl-2 gene expression in HepG-2 cells; format: cell-based, human
Procedure: as §1, §2, §3, §4, §5, §6

caspase-3 = test: Caspase-3 expression level in HepG-2 cells; format: cell-based, human; settings: for Caspase-3 ± SE: HepG-2, at IC50 concentrations, control 0.460
Procedure: as §1, §2, §3, §4, §5, §6

TNF-alpha = TNF-alpha level in HepG-2 cells; format: cell-based, human; settings: control 43.48
Procedure: as §1, §2, §3, §4, §5, §6

K-562 = test: MTT anti-proliferative assay, K-562; format: cell-based, human; settings: Homo sapiens, K562
BAX = BAX gene expression in HepG-2 cells; format: cell-based, human
Procedure: as §1, §2, §3, §4, §5, §6

VEGFR-2, sequence (P35968 20-1356): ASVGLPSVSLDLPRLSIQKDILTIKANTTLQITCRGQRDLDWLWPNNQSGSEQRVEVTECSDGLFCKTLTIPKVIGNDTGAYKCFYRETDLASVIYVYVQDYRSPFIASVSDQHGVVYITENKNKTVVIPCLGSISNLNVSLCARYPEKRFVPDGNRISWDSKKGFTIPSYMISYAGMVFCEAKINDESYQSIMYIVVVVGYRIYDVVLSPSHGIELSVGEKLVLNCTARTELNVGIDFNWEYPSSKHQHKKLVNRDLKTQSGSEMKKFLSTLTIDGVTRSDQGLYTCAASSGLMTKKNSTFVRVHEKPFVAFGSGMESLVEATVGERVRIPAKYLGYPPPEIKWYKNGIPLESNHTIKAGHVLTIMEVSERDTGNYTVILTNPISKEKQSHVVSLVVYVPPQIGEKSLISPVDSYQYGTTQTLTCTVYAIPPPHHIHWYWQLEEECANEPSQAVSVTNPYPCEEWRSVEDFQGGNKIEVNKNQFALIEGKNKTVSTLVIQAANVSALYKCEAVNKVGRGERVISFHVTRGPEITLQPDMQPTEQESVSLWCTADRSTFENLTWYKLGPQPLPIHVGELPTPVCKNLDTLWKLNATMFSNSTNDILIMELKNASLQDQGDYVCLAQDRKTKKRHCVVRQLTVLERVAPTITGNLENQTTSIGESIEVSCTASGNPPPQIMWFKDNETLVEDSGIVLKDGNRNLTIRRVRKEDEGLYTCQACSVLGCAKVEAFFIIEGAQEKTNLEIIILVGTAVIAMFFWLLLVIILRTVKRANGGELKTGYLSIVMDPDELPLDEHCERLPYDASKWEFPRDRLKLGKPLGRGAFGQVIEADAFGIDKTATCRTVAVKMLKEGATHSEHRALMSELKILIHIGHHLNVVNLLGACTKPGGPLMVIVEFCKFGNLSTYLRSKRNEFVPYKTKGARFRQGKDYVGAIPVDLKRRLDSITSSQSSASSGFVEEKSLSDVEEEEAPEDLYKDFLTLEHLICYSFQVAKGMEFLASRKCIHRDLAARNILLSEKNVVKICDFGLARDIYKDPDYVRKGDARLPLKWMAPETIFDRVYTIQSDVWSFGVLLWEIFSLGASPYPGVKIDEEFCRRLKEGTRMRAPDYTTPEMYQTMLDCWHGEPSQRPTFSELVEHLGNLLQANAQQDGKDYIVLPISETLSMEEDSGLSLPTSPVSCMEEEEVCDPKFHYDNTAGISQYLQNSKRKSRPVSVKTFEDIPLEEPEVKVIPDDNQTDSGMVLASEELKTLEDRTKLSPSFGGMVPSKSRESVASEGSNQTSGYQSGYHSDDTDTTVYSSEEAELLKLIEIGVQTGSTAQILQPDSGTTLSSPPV
EGFR, sequence (P00533 25-1210): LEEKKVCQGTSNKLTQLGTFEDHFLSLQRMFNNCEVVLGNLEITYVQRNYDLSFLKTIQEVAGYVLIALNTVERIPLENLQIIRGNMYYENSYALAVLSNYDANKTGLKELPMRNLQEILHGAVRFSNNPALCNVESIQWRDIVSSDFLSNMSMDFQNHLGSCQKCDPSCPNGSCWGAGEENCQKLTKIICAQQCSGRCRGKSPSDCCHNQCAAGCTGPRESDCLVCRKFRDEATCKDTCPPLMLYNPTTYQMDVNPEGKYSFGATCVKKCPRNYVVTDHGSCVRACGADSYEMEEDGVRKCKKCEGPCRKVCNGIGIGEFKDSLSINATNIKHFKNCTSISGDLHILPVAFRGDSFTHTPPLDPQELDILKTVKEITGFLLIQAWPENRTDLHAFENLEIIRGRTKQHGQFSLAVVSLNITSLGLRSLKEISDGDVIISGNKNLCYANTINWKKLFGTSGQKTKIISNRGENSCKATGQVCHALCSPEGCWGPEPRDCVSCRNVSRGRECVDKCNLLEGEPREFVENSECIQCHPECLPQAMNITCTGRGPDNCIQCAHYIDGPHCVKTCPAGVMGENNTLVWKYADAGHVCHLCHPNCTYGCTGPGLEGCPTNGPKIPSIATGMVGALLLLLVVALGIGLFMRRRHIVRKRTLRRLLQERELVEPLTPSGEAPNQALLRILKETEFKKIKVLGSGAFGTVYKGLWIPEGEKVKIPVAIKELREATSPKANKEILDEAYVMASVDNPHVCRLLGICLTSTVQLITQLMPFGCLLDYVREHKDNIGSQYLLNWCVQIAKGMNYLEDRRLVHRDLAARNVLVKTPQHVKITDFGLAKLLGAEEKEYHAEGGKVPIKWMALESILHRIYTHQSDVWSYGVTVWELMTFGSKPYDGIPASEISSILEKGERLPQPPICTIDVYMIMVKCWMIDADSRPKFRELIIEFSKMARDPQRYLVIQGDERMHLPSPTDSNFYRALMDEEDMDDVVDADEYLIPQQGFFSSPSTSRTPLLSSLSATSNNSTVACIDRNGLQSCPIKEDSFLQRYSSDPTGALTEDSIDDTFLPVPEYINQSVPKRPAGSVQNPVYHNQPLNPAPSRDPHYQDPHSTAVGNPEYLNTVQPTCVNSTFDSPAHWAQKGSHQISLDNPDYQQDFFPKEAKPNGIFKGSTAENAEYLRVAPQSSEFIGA

In the case of `O=C(CSc1nc2ccc([N+](=O)[O-])cc2c(=O)n1-c1ccccc1)NNC(=O)c1ccccc1` [VII], the “IC50 PC3” value (PC3) is listed as 26.10 µg/mL (≈ 54.9 µM), the IC50 (VEGFR-2 kinase; read-out: IC50 against VEGFR-2 kinase) is listed as 4600 ± 60 nM and the “IC50 MCF-7” value (MCF-7 [1]) is listed as 30.85 µg/mL (≈ 64.9 µM). For the same compound, the IC50 (WI-38) was 146000 nM and the “IC50 HepG2” value (HepG2) was 17.23 µg/mL (≈ 36.2 µM).
For `O=C(Cn1cnc2cc([N+](=O)[O-])ccc2c1=O)Nc1ccccc1` [9a, 2-(7-Nitro-4-oxoquinazolin-3(4H)-yl)-N-phenylacetamide], the “IL-6R ± SE” value (IL-6R; HepG-2, at IC50 concentrations) was 26.0 ± 0.97 ng/L, the “IL-6 ±SE” value (IL-6R; raw data, HepG2) was 14.73 ng/L and the viability at 0.195 µg/mL (HepG-2; HepG-2, 0.195 ug/ml) was 45.9%. The cytotoxicity at 0.195 µg/mL (HepG-2; HepG-2, 0.195 ug/ml, read-out: Toxicity %) was 54.1%, the viability at 0.391 µg/mL (HepG-2; HepG-2, 0.391 ug/ml) was 29.7% and the cytotoxicity at 0.391 µg/mL (HepG-2; HepG-2, 0.391 ug/ml, read-out: Toxicity %) was 70.3%. The viability at 0.781 µg/mL (HepG-2; HepG-2, 0.781 ug/ml) was 21%, the cytotoxicity at 0.781 µg/mL (HepG-2; HepG-2, 0.781 ug/ml, read-out: Toxicity %) was 79% and the viability at 1.563 µg/mL (HepG-2; HepG-2, 1.563 ug/ml) was 12.7%. For the same compound, the cytotoxicity at 1.563 µg/mL (HepG-2; HepG-2, 1.563 ug/ml, read-out: Toxicity %) was 87.3%, the viability at 3.125 µg/mL (HepG-2; HepG-2, 3.125 ug/ml) was 9.56% and the cytotoxicity at 3.125 µg/mL (HepG-2; HepG-2, 3.125 ug/ml, read-out: Toxicity %) was 90.4%. The viability at 6.25 µg/mL (HepG-2; HepG-2, 6.25 ug/ml) was 6.96%, the cytotoxicity at 6.25 µg/mL (HepG-2; HepG-2, 6.25 ug/ml, read-out: Toxicity %) was 93% and the viability at 12.5 µg/mL (HepG-2; HepG-2, 12.5 ug/ml) was 6.04%. For the same compound, the cytotoxicity at 12.5 µg/mL (HepG-2; HepG-2, 12.5 ug/ml, read-out: Toxicity %) was 94%, the viability at 25 µg/mL (HepG-2; HepG-2, 25 ug/ml) was 5.71% and the cytotoxicity at 25 µg/mL (HepG-2; HepG-2, 25 ug/ml, read-out: Toxicity %) was 94.3%. The IC50 (HepG-2; MTT, HepG-2, read-out: Cytotoxicity against cancer cells IC50 HepG-2) was 187.1 ± 1.7 nM, the “Caspase-9 ± SE” value (caspase-9) was 30.57 ± 3.39 ng/L and the “Caspase-9 ± SE” value (caspase-9; listed as N1) was 30.57 ng/L. For the same compound, the “caspase-9 expression level, fold increase” value (caspase-9; HepG-2, vs control cells) was 2.77 fold, the Activity % (EGFR; HepG2) was 16.297% and the Inhibition % (EGFR; HepG2) was 83.703%. The Activity % (EGFR; K-562) was 21.954%, the Inhibition % (EGFR; K-562) was 78.046% and the Activity % (EGFR; MCF7) was 19.563%. It also gave an Inhibition % (EGFR; MCF7) of 80.437%, a viability at 0.195 µmol (MCF-7 [2]; MCF-7, 0.195 umol) of 56.6% and a cytotoxicity at 0.195 µmol (MCF-7 [2]; MCF-7, 0.195 umol, read-out: Toxicity %) of 43.4%. For the same compound, the viability at 0.391 µmol (MCF-7 [2]; MCF-7, 0.391 umol) was 41.8%, the cytotoxicity at 0.391 µmol (MCF-7 [2]; MCF-7, 0.391 umol, read-out: Toxicity %) was 58.2% and the viability at 0.781 µmol (MCF-7 [2]; MCF-7, 0.781 umol) was 27.6%. The cytotoxicity at 0.781 µmol (MCF-7 [2]; MCF-7, 0.781 umol, read-out: Toxicity %) was 72.4%, the viability at 1.563 µmol (MCF-7 [2]; MCF-7, 1.563 umol) was 13.5% and the cytotoxicity at 1.563 µmol (MCF-7 [2]; MCF-7, 1.563 umol, read-out: Toxicity %) was 86.5%. For the same compound, the viability at 3.125 µmol (MCF-7 [2]; MCF-7, 3.125 umol) was 9.94%, the cytotoxicity at 3.125 µmol (MCF-7 [2]; MCF-7, 3.125 umol, read-out: Toxicity %) was 90.1% and the viability at 6.25 µmol (MCF-7 [2]; MCF-7, 6.25 umol) was 8.66%. The cytotoxicity at 6.25 µmol (MCF-7 [2]; MCF-7, 6.25 umol, read-out: Toxicity %) was 91.3%, the viability at 12.5 µmol (MCF-7 [2]; MCF-7, 12.5 umol) was 6.99% and the cytotoxicity at 12.5 µmol (MCF-7 [2]; MCF-7, 12.5 umol, read-out: Toxicity %) was 93%. The viability at 25 µmol (MCF-7 [2]; MCF-7, 25 umol) was 6.42%, the cytotoxicity at 25 µmol (MCF-7 [2]; MCF-7, 25 umol, read-out: Toxicity %) was 93.6% and the IC50 (MCF-7 [2]; MTT, MCF-7, read-out: Cytotoxicity against cancer cells IC50 MCF-7) was 282.4 ± 1.4 nM. The “Gene expression (fold change) BAX/Bcl-2 ratio” value (BAX/Bcl-2; control 0.1260) was 2.1544 ± 0.96, the BAX/Bcl-2 ratio (BAX/Bcl-2; control […]) was 2.15 and the Activity % (VEGFR-2; HepG2) was 14.760%. It also gave an Inhibition % (VEGFR-2; HepG2) of 85.240%, an Activity % (VEGFR-2; K-562) of 35.983% and an Inhibition % (VEGFR-2; K-562) of 64.017%. The Activity % (VEGFR-2; MCF7) was 19.964%, the Inhibition % (VEGFR-2; MCF7) was 80.036% and the “fold reduction in Bcl-2 expression level” value (Bcl-2; HepG-2, vs control) was 2.8 fold. The Bcl-2 expression level (Bcl-2; HepG-2, control 3.49) was 1.23 fold change, the “Gene expression (fold change) Bcl-2” value (Bcl-2; HepG-2, control 3.4983) was 1.2368 ± 0.30 fold change and the “Caspase-3 ± SE” value (caspase-3) was 0.98 ± 0.04 ng/mL. The “Caspase-3 ± SE” value (caspase-3; listed as N1) was 0.98 ng/mL, the “caspase-3 expression level, fold increase” value (caspase-3; HepG-2, vs control cells) was 2.1 fold and the “TNF-alpha ±SE” value (TNF-alpha; HepG-2, at IC50 concentrations) was 23.6 ± 1.35 ng/L. The “TNF-alpha ±SE” value (TNF-alpha; raw data, HepG2) was 9.13 ng/L, the viability at 0.195 µmol (K-562; K-562, 0.195 umol) was 66.6% and the cytotoxicity at 0.195 µmol (K-562; K-562, 0.195 umol, read-out: Toxicity %) was 33.4%. For the same compound, the viability at 0.391 µmol (K-562; K-562, 0.391 umol) was 49.6%, the cytotoxicity at 0.391 µmol (K-562; K-562, 0.391 umol, read-out: Toxicity %) was 50.4% and the viability at 0.781 µmol (K-562; K-562, 0.781 umol) was 30.8%. It also gave a cytotoxicity at 0.781 µmol (K-562; K-562, 0.781 umol, read-out: Toxicity %) of 69.2%, a viability at 1.563 µmol (K-562; K-562, 1.563 umol) of 16.5% and a cytotoxicity at 1.563 µmol (K-562; K-562, 1.563 umol, read-out: Toxicity %) of 83.5%. It also gave a viability at 3.125 µmol (K-562; K-562, 3.125 umol) of 8.91%, a cytotoxicity at 3.125 µmol (K-562; K-562, 3.125 umol, read-out: Toxicity %) of 91.1% and a viability at 6.25 µmol (K-562; K-562, 6.25 umol) of 8.78%. The cytotoxicity at 6.25 µmol (K-562; K-562, 6.25 umol, read-out: Toxicity %) was 91.2%, the viability at 12.5 µmol (K-562; K-562, 12.5 umol) was 7.76% and the cytotoxicity at 12.5 µmol (K-562; K-562, 12.5 umol, read-out: Toxicity %) was 92.2%. For the same compound, the viability at 25 µmol (K-562; K-562, 25 umol) was 7.02%, the cytotoxicity at 25 µmol (K-562; K-562, 25 umol, read-out: Toxicity %) was 93% and the IC50 (K-562; MTT, K-562, read-out: Cytotoxicity against cancer cells IC50 K-562) was 385.8 ± 3.2 nM. The “fold increase in BAX expression level” value (BAX; HepG-2, vs control) was 6 fold, the BAX expression level (BAX; HepG-2, control 0.44) was 2.65 fold change and the “Gene expression (fold change) BAX” value (BAX; HepG-2, control 0.4448) was 2.6533 ± 0.40 fold change.
In the case of `O=C(Nc1ccc(Oc2nc(Cl)nc3ccccc23)cc1)c1cccnc1` [VIII], the “IC50 PC3” value (PC3) is listed as 40.90 µg/mL (≈ 109 µM), the IC50 (VEGFR-2 kinase; read-out: VEGFR-2 inhibition IC50) is listed as 60 nM and the “IC50 MCF-7” value (MCF-7 [1]) is listed as 33.40 µg/mL (≈ 88.6 µM). The “IC50 HepG2” value (HepG2) was 24.10 µg/mL (≈ 64 µM).
